Measurements reported in ChEMBL document CHEMBL1132683 (Bioorg Med Chem Lett, 1999).
Numbered stars: 1 amine (or outer) side, 2 acyl side, 3 side chain; on linkers, the order of the positions; unused ones are H or OH. Bridge positions count the residues as written; N and C are the ends. Square brackets hold non-standard residues; d marks the D form. Peptide text beside a SMILES is read from it. X1 = O=C([C@@]1(N[*:1])CCc2ccccc2C1)[*:2]; Atc(2S) = N[C@@]1(C(=O)O)CCc2ccccc2C1; Mpa = O=C(O)CCS; Sar = CNCC(=O)O

What was measured:
[1] = target: Vasopressin V2 receptor (Rattus norvegicus, UniProt Q00788); test: Compound was evaluated for its dissociation constant (Kd) to rat kidney Vasopressin V2 receptor
Vasopressin V2 receptor, sequence (Q00788 whole entry): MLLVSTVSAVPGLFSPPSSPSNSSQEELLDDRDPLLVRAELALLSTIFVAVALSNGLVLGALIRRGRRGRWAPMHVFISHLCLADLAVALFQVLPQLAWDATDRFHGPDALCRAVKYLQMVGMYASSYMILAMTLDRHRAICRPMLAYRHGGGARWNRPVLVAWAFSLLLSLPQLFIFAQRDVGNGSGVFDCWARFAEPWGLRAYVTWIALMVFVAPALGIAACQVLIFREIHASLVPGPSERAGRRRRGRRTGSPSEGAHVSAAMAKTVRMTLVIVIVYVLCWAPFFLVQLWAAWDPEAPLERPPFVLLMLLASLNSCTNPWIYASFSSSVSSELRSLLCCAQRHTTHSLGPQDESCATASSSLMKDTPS

[2] = target: Vasopressin V1 receptor (Rattus norvegicus, UniProt P48974+P30560); test: Compound was evaluated for its dissociation constant (Kd) to rat liver Vasopressin V1 receptor
[3] = target: Oxytocin receptor (Cavia porcellus); test: Compound was evaluated for its dissociation constant (Kd) to guinea pig myometrial Oxytocin receptor

| Compound | Kd [1] | Kd [2] | Kd [3] |
| --- | --- | --- | --- |
| CC[C@H](C)[C@@H]1NC(=O)[C@@H](Cc2ccccc2)NC(=O)CCSSC[C@@H](C(=O)N(C)CC(=O)N[C@@H](CCCNC(=N)N)C(=O)NCC(N)=O)NC(=O)[C@H](CC(N)=O)NC(=O)[C@H](CCC(N)=O)NC1=O | 0.421 µM |  |  |
| CC[C@H](C)[C@@H]1NC(=O)[C@@H]2c3[nH]c4ccccc4c3CCN2C(=O)CCSSC[C@H](C(=O)N(C)CC(=O)N[C@@H](CCCN=C(N)N)C(=O)NCC(N)=O)NC(=O)[C@H](CC(N)=O)NC(=O)[C@H](CCC(N)=O)NC1=O | > 100 µM | 0.0178 µM |  |
| CC[C@H](C)[C@@H]1NC(=O)[C@@H](Cc2c[nH]c3ccccc23)NC(=O)CC2(CCCCC2)SSC[C@@H](C(=O)N(C)CC(=O)N[C@@H](CCCNC(=N)N)C(=O)NCC(N)=O)NC(=O)[C@H](CC(N)=O)NC(=O)[C@H](CCC(N)=O)NC1=O | 0.003 µM |  | 0.006 µM |
| CC[C@H](C)[C@@H]1NC(=O)[C@@H](Cc2c[nH]c3ccccc23)NC(=O)CCSSC[C@@H](C(=O)N(C)CC(=O)N[C@@H](CCCNC(=N)N)C(=O)NCC(N)=O)NC(=O)[C@H](CC(N)=O)NC(=O)[C@H](CCC(N)=O)NC1=O | 4.96 µM | 0.888 µM |  |
| CC[C@H](C)[C@@H]1NC(=O)[C@@]2(CCc3ccccc3C2)NC(=O)CCSSC[C@@H](C(=O)N(C)CC(=O)N[C@@H](CCCN=C(N)N)C(=O)NCC(N)=O)NC(=O)[C@H](CC(N)=O)NC(=O)[C@H](CCC(N)=O)NC1=O ([Mpa][Atc(2S)]IQNC[Sar]RG-NH2; disulfide 1-6) | 2.29 µM | 17.6 µM |  |
| CC[C@H](C)[C@@H]1NC(=O)[C@]2(CCc3ccccc3C2)NC(=O)CCSSC[C@@H](C(=O)N(C)CC(=O)N[C@@H](CCCN=C(N)N)C(=O)NCC(N)=O)NC(=O)[C@H](CC(N)=O)NC(=O)[C@H](CCC(N)=O)NC1=O ([Mpa][X1]IQNC[Sar]RG-NH2; disulfide 1-6) | 5.34 µM | 2.64 µM |  |
| CC[C@H](C)[C@@H]1NC(=O)[C@@H]2c3[nH]c4ccccc4c3CCN2C(=O)CCSSC[C@H](C(=O)N(C)CC(=O)N[C@@H](CCCN=C(N)N)C(=O)NCC(N)=O)NC(=O)[C@H](CC(N)=O)NC(=O)[C@H](CCC(N)=O)NC1=O (single isomer, unassigned) | > 100 µM | 0.0635 µM |  |
